In one data set the test system is MC3T3-E1 cells. Kind of data set: Calcium assay (pro-calcifying activity) on mouse pre-osteoblastic cells. It counts as cell-based. The conditions noted are these: for production of calcium by the MC3T3-E1 cells (calcium dosage in culture medium): 9 days, 4 mM Pi, 30 μM compound, vs control+Pi (FIG. 1); for increase in calcification relative to the mineralizing medium: MC3T3-E1, 25 days. The method, then: FIG. 1 represents the calcium dosage in the MC3T3-E1 culture medium (in […] of protein per well) after 9 days of exposure of these cells to 4 mM of Pi ([…]) (control+Pi) and 4 mM of Pi in the presence of 30 μM of each of the compounds referenced DP2SNA, DP2NA, DP2K and DP2S;
(§1) For all experiments, a mouse pre-osteoblastic cell line (MC3T3-E1, ATCC) and human primary osteoblastic cells (HOb, Promocell) were used. The mouse pre-osteoblastic cells were cultured in 75 cm^2 flasks, containing 15 mL of α-MEM medium (M4526, SIGMA) and 10% fetal calf serum (FCS), containing 1% Penicillin/Streptomycin antibiotics and 1% glutamine. Similarly, human HOb cells were cultured in 75 cm 2 flasks containing 15 mL of proliferation medium (Human Osteoblast Proliferation Medium, PromoCell). The cells are maintained in the oven at 37° C., with 5% CO2 and 90% humidity. The medium was changed every three days.
(§2) MC3T3-E1 cells were seeded in 6-well plates at 63,700 cells/well to be treated in order to extract RNA or for alkaline phosphatase enzymatic activity assay and in 48-well plates for the calcium assay at 5250 cells/well. The HOb cells were seeded at 182,000 cells/well in 6-well plates for the extraction of RNA or for the alkaline phosphatase enzymatic activity assay; at 15,000 cells/well in 48-well plates for the calcium assay; at 10,000 cells/well in 48-well plates for the MTT test or the WST-1 test and at 100,000 cells/well in 6-well plates for the protein extraction or for the fluorescence.
(§3) In order to induce the mineralization, the MC3T3-E1 cells were treated with α-MEM medium containing 5% FCS to which 10 mM of β-glycerophosphate and 50 μg/mL of ascorbic acid are added. The HOb cells were treated with the “Osteoblast mineralization medium” (Promocell). […] After filtration, the cells were treated with the respective media (500 μL per well of the 48-well plate and 2 mL per well of the 6-well plate).
The release of calcium in the culture medium of mouse pre-osteoblastic cells (MC3T3-E1) has been studied.
An increase in calcification was observed, relative to the mineralizing medium (FIG. 2), in the presence of DP2R0 at 15 μM (40±2%), at 30 μM (28±18%) and at 50 μM (40±28%), and DP2NA at 15 μM (15±14%), at 30 μM (33±12%) and at 50 μM (10±19%).

Another data set concerns HOb cells. Kind of data set: Calcium assay (pro-calcifying activity, mineralization) on human primary osteoblastic cells. The format is cell-based. The conditions noted are these: for increase in calcification relative to the mineralizing condition: HOb. The method, then: as §1, §2, §3
The calcification has also been studied on human osteoblastic cells (Hob, PromoCell, Heidelberg, Germany). They are isolated from femoral trabecular bone tissues.

Data set [1] in a line: Acetate migration DP2/DP2′ in solution (stability). It counts as physicochemical. The conditions noted are these: water, after 44 days. The method, then:
The compound DP2′ was extracted from the DP2-DP2′ mixture which is formed when the compound DP2 is dissolved in water. The compound DP2′ has been separated by preparative HPLC chromatography with water as elution solvent.
The inventors have observed that when the compound DP2′ was in water, the delocalization of the acetate group was also present, but with very slow kinetics compared to the DP2→DP2′ reaction. Thus, a solution of DP2′ in water which is left to rest contains, after 44 days, 10 to 15% of DP2. The DP2′ therefore remains alone in the water for a given duration which is quite long. It is therefore possible to test the biological effect of DP2′ in solution in water.
Similarly, the inventors have observed that the kinetics of the DP2→DP2′ reaction is such that it is also possible to test the biological activity of the compound DP2 alone after extraction of the formed compound DP2′. Thus, the two compounds DP2 and DP2′ can coexist or not in water for a given duration.
In methanol, for example, the compound DP2 is therefore alone.
There is about ⅔ of DP2R2 for ⅓ of DP2′. The compound DP2′ comes from a migration of the acetate group (R2) on the 30H position. The compound DP2′ could be isolated and synthesized as previously indicated. […]

As for `CCCO[C@H]1OC(COS(=O)(=O)[O-])[C@@H](O[C@@H]2OC(CO)[C@@H](O)C(O)C2NC(C)=O)C(O)C1O.[Na+]` (stereo partly drawn) [DP2SNA, n-propyl, 6-O-sulfo-α-D-Glucopyranoside, 4-O-(2-acetamido-2-desoxy-β-D-glucopyranosyl), monosodium salt], in the data set with MC3T3-E1 cells, the “production of calcium by the MC3T3-E1 cells (calcium dosage in culture medium)” value (from here on “production of calcium”) is recorded as “increase the production of calcium”.

For `CCCOC1OC(CO)C(OC2OC(CO)C(O)C(O)C2NC(C)=O)C(OC(C)=O)C1O` [DP2′, n-propyl, 3-0-acetyl-α-D-Glucopyranoside, 4-O-(2-acetamido-2-deoxy-β-D-glucopyranosyl)], the “percentage of mineralization of the HOb cells” value in the data set with HOb cells (14 days, mineralizing conditions, 30 μM) is recorded as 143.806±36.657%. In addition, the “DP2 content of a solution of DP2′ in water left to rest” value in data set [1] fell in the range of 10 to 15%.

`CCCO[C@H]1OC(CO)[C@@H](O[C@@H]2OC(CO)[C@@H](O)C(O)C2NC(C)=O)C(O)C1O` (stereo partly drawn) [DP2NA, n-propyl, α-D-Glucopyranoside, 4-O-(2-acetamido-2-deoxy-β-D-glucopyranosyl)]: in the data set on MC3T3-E1 cells, the “production of calcium” value was “increase the production of calcium”. Moreover, the “increase in calcification relative to the mineralizing medium” value in the data set with MC3T3-E1 cells (15 μM) is 15±14%; in the data set on MC3T3-E1 cells (30 μM) it was 33±12%; in the data set on MC3T3-E1 cells (50 μM) it was 10±19%. Further, the “increase in calcification relative to the mineralizing condition” value in the data set with HOb cells (14 days, 15 μM) was determined as 45±42%; in the data set with HOb cells (14 days, 30 μM), 44±7%; in the data set with HOb cells (14 days, 50 μM), 35±8%. Also, in the data set on HOb cells (lower concentrations 5, 7.5 and 10 μM (FIG. 4)), the “mineralization of the HOb cells relative to the mineralizing medium alone” value is reported as “decrease in mineralization”.

As for `CCCO[C@H]1O[C@H](COS(=O)(=O)[O-])[C@@H](O[C@@H]2O[C@H](CO)[C@@H](O)[C@H](O)[C@H]2NC(C)=O)[C@H](O)[C@H]1OC(C)=O.[Na+]` [DP2S, n-propyl, 2-0-acetyl-6-O-sulfo-α-D-Glucopyranoside, 4-O-(2-acetamido-2-desoxy-β-D-glucopyranosyl), monosodium salt], the “production of calcium” value in the data set on MC3T3-E1 cells is “significantly inhibits the expression of calcium”.

The record behind these values is US20240083933A1, “DISACCHARIDES FOR TREATING BONE DISEASES” (UNIVERSITE DE PICARDIE JULES VERNE, priority 2020, published 2024).
